{"source": "paper PMC5675407", "about": "“Sugar analog synthesis by in vitro biocatalytic cascade: A comparison of alternative enzyme complements for dihydroxyacetone phosphate production as a precursor to rare chiral sugar synthesis” (PLoS ONE, 2017)", "target": "T1, FruASc (Staphylococcus carnosus, UniProt Q07159)", "T1 construct": "gene fda; recombinant from pETScFruA, E. coli", "T1 sequence (Q07159 2-296)": "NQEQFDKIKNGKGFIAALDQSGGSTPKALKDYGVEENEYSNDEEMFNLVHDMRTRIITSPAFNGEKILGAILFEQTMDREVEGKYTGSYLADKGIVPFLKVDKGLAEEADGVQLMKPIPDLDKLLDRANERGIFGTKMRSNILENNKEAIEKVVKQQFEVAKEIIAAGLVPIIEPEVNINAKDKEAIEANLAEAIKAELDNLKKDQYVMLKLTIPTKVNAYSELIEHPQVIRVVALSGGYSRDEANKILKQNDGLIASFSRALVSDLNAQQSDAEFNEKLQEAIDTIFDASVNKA", "experiment": "LC-MS of aldol product in enzyme cascade", "format": "biochemical", "details": "DHAP made in situ; acetaldehyde or glyceraldehyde-3-phosphate 10 mM, pH 7.9, 22 °C", "data": [{"smiles": "O=C(CO)COP(=O)(O)O", "note": "[DHAP]", "values": [{"measurement": "LC-MS of aldol product in enzyme cascade", "result": "as DHAP was consumed by the aldolase reaction, greater conversion to DHAP occurred"}]}]}
